Laboratory results published in ChEMBL document CHEMBL1138451, “Significance of interactions of BACE1-Arg235 with its ligands and design of BACE1 inhibitors with P2 pyridine scaffold” (Bioorg Med Chem Lett, 2009).

Key:
[1] = biological target: T1, Beta-secretase 1 (Homo sapiens, UniProt P56817); assay: Inhibition of human recombinant Arg235 region of BACE1 by FRET assay
[2] = biological target: T1, Beta-secretase 1; assay: Inhibition of human recombinant Arg235 region of BACE1 at 2 uM by FRET assay
[3] = biological target: T1, Beta-secretase 1; assay: Inhibition of human recombinant Arg235 region of BACE1 at 0.2 uM by FRET assay

T1 sequence (P56817 whole entry): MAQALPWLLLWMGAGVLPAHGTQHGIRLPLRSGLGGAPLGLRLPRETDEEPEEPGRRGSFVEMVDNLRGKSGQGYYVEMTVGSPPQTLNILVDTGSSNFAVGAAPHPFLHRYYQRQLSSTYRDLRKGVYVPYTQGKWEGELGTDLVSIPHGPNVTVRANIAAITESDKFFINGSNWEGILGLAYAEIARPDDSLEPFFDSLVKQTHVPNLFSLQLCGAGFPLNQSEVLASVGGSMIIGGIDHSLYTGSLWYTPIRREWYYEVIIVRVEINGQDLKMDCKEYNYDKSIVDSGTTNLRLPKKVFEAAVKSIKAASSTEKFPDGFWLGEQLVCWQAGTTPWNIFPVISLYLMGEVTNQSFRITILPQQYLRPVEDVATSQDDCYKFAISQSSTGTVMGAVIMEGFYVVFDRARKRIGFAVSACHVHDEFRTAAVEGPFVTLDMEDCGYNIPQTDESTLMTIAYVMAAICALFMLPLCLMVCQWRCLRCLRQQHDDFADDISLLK

Row | SMILES | IC50 [1] [nM] | inhibition [2] [%] | inhibition [3] [%]
1 | O=C(N[C@@H](Cc1ccccc1)[C@H](O)C(=O)Nc1cccc(-c2nnn[nH]2)c1)c1cc(I)cc(C(=O)N2COC[C@@H]2c2ccc(F)cc2)n1 | 10 |  | 
2 | O=C(N[C@@H](Cc1ccccc1)[C@H](O)C(=O)Nc1cccc(-c2nn[nH]n2)c1)c1cc(Br)cc(C(=O)N2COC[C@@H]2c2ccc(F)cc2)n1 |  | 99 | 93
3 | O=C(N[C@@H](Cc1ccccc1)[C@H](O)C(=O)Nc1cccc(-c2nn[nH]n2)c1)c1cc(I)cc(C(=O)N2COC[C@@H]2c2ccccc2)n1 | 24 | 99 | 86
4 | O=C(N[C@@H](Cc1ccccc1)[C@H](O)C(=O)Nc1cccc(-c2nn[nH]n2)c1)c1cccc(C(=O)N2COC[C@@H]2c2ccccc2)n1 |  | 89 | 
5 | O=C(N[C@@H](Cc1ccccc1)[C@H](O)C(=O)Nc1cccc(-c2nn[nH]n2)c1)c1cc(Br)cc(C(=O)N2COC[C@@H]2c2ccccc2)n1 |  | 99 | 88
6 | O=C(N[C@@H](Cc1ccccc1)[C@H](O)C(=O)Nc1cccc(-c2nnn[nH]2)c1)c1cc(Br)cc(C(=O)N2COC[C@@H]2c2ccc(F)cc2)n1 | 9 |  | 
7 | O=C(N[C@@H](Cc1ccccc1)[C@H](O)C(=O)Nc1cccc(-c2nn[nH]n2)c1)c1cc(I)cc(C(=O)N2COC[C@@H]2c2ccc(F)cc2)n1 |  | 99 | 92
8 | O=C(N[C@@H](Cc1ccccc1)[C@H](O)C(=O)Nc1cccc(-c2nnn[nH]2)c1)c1cc(Br)cc(C(=O)N2COC[C@@H]2c2ccccc2)n1 | 15 |  | 
9 | O=C(N[C@@H](Cc1ccccc1)[C@H](O)C(=O)Nc1cccc(-c2nn[nH]n2)c1)c1cc(Cl)cc(C(=O)N2COC[C@@H]2c2ccc(F)cc2)n1 | 13 | 99 | 91
10 | O=C(N[C@@H](Cc1ccccc1)[C@H](O)C(=O)Nc1cccc(-c2nnn[nH]2)c1)c1cc(Cl)cc(C(=O)N2COC[C@@H]2c2ccccc2)n1 | 22 |  | 
11 | O=C(N[C@@H](Cc1ccccc1)[C@H](O)C(=O)Nc1cccc(-c2nn[nH]n2)c1)c1cc(Cl)cc(C(=O)N2COC[C@@H]2c2ccccc2)n1 |  | 98 | 87
